In patent publication US20250352658A1, “COMBINATION THERAPY USING ANTIBODY-DRUG CONJUGATES” (ADC THERAPEUTICS SA, priority 2021, published 2025):
Square brackets hold non-standard residues; d marks the D form. Peptide text beside a SMILES is read from it. * marks the point of attachment. Dolaproine = CO[C@@H]([C@@H]1CCCN1)[C@@H](C)C(=O)O; Dil = CC[C@H](C)[C@H](NC)[C@@H](CC(=O)O)OC; X1 = C[C@@H](N*)[C@@H](O)c1ccccc1; NMeV = CN[C@H](C(=O)O)C(C)C

How the values were obtained:
[1] = tested on: TMD8 cells; assay: CellTiterGlo viability assay, SG3199 and MMAE combination, TMD8; type: cell-based; details: for CI (combination index) / Fa (fraction affected): 24 hours
Method: We tested a combination of the warheads alone used in CD19xADC (PBD SG3199) and CD79bxADC (monomethyl auristatin E (MMAE)). This was performed essentially as per Example 1, in TMD8 cells. Cells were seeded at a density of 50,000 cells/mL. […]
Cells were incubated for 24 hours and then viability was measured with CellTiterGlo assay.
For analysis of the results, data were first blank corrected (average of blank of the 3 replicates was subtracted from each data value). For GraphPad analysis, each replicate was normalized over the untreated cells (average of the 3 replicates). Data were analysed by GraphPad Prism to generate a dose response curve with Log drug concentration on X-axis and cell viability (%) on Y-axis. For CalcuSyn analysis, the average of the 3 replicates was corrected over the untreated cells.

[2] = tested on: Ramos xenograft; assay: In vivo efficacy, Ramos xenograft model; design: species or system mice
Method: A further in vivo study was conducted, similar to Example 2 but using a Ramos xenograft model.
Female severe combined immunodeficient mice (Fox Chase SCID®, CB17/Icr-Prkdc^scid/IcrIcoCrl, Charles River) were eight weeks old with a body weight (BW) range of 15.6 to 22.9 g on Day 1 of the study.
On the day of implant, 1×10^7 Ramos cells (0.1 mL suspension) were subcutaneously implanted into the right flank of each test animal and tumors were monitored as their volumes approached the target range. All vehicle and ADC doses were administered i.v. via tail vein injection once on Day 1 (qd×1). The dosing volume was 0.2 mL per 20 grams of body weight (10 mL/kg) and was scaled to the body weight of each individual animal.
Fourteen days after tumor implantation, designated as Day 1 of the study, the animals were sorted into groups (n=10) with individual tumor volumes of 108 to 144 mm^3 and group mean tumor volumes of 130 to 134 mm^3.
(§1) Tumors were measured using calipers twice per week, and each animal was euthanized when its tumor reached the endpoint volume of 1000 mm^3 or at the end of the study, whichever came first. The study ended on Day 62.

[3] = tested on: WSU-DLCL2 xenograft; assay: In vivo efficacy, WSU-DLCL2 xenograft model; design: species or system mice
Method: Female severe combined immunodeficient mice (Fox Chase SCID®, CB17/Icr-Prkdc^scid/IcrIcoCrl, Charles River) were nine weeks old with a body weight (BW) range of 17.3 to 24.1 g on Day 1 of the study.
On the day of implant, 1×10^7 WSU-DLCL2 cells (0.1 mL suspension) were subcutaneously implanted into the right flank of each test animal and tumors were monitored as their volumes approached the target range.
Ten days after tumor implantation, designated as Day 1 of the study, the animals were sorted into groups (n=10) with individual tumor volumes of 88 to 126 mm^3 and group mean tumor volumes of 109 to 111 mm^3.
All vehicle and ADC doses were administered i.v. via tail vein injection once on Day 1 (qd×1). The dosing volume was 0.2 mL per 20 grams of body weight (10 mL/kg) and was scaled to the body weight of each individual animal.
as §1
Tumors were measured in two dimensions using calipers, and volume was calculated using the formula
Tumor Volume (mm^3)=w^2×l/2, where w=width and l=length, in mm, of the tumor.
Tumor weight may be estimated with the assumption that 1 mg is equivalent to 1 mm^3 of tumor volume.

[4] = SG3199 0.06 pM + MMAE 0.08 ng/ml
[5] = SG3199 0.06 pM + MMAE 0.2 ng/ml
[6] = SG3199 0.06 pM + MMAE 0.6 ng/ml
[7] = SG3199 0.06 pM + MMAE 1.9 ng/ml
[8] = SG3199 0.06 pM + MMAE 5.6 ng/ml
[9] = SG3199 0.23 pM + MMAE 0.08 ng/ml
[10] = SG3199 0.23 pM + MMAE 0.2 ng/ml
[11] = SG3199 0.23 pM + MMAE 0.6 ng/ml
[12] = SG3199 0.23 pM + MMAE 1.9 ng/ml
[13] = SG3199 0.23 pM + MMAE 5.6 ng/ml
[14] = SG3199 0.90 pM + MMAE 0.08 ng/ml
[15] = SG3199 0.90 pM + MMAE 0.2 ng/ml
[16] = SG3199 0.90 pM + MMAE 0.6 ng/ml
[17] = SG3199 0.90 pM + MMAE 1.9 ng/ml
[18] = SG3199 0.90 pM + MMAE 5.6 ng/ml
[19] = SG3199 3.6 pM + MMAE 0.08 ng/ml
[20] = SG3199 14.4 pM + MMAE 0.08 ng/ml
[21] = SG3199 14.4 pM + MMAE 0.2 ng/ml
[22] = SG3199 14.4 pM + MMAE 0.6 ng/ml
[23] = SG3199 14.4 pM + MMAE 1.9 ng/ml
[24] = SG3199 14.4 pM + MMAE 5.6 ng/ml
[25] = SG3199 57.5 pM + MMAE 0.08 ng/ml
[26] = SG3199 57.5 pM + MMAE 0.2 ng/ml
[27] = SG3199 57.5 pM + MMAE 0.6 ng/ml
[28] = SG3199 57.5 pM + MMAE 1.9 ng/ml
[29] = SG3199 57.5 pM + MMAE 5.6 ng/ml
[30] = SG3199 230 pM + MMAE 0.08 ng/ml
[31] = CD19xADC 0.3 mg/kg i.v. once on Day 1, n=10
[32] = CD19xADC 0.6 mg/kg i.v. once on Day 1, n=10
[33] = CD19xADC 0.25 mg/kg i.v. once on Day 1, n=10
[34] = CD19xADC 0.5 mg/kg i.v. once on Day 1, n=10

In the case of `CC[C@H](C)[C@@H]([C@@H](CC(=O)N1CCC[C@H]1[C@H](OC)[C@@H](C)C(=O)N[C@H](C)[C@@H](O)c1ccccc1)OC)N(C)C(=O)[C@@H](NC(=O)[C@@H](NC)C(C)C)C(C)C.COc1cc2c(cc1OCCCCCOc1cc3c(cc1OC)C(=O)N1C=C(C)C[C@H]1C=N3)N=C[C@@H]1CC(C)=CN1C2=O` [SG3199 + MMAE] (H-[NMeV]V[Dil][Dolaproine]-X1), the “CI (combination index)” value [1, 4] is reported as 1.65, the “Fa (fraction affected)” value [1, 4] is reported as 0.12 and the “CI (combination index)” value [1, 5] is reported as 2.06. The “Fa (fraction affected)” value [1, 5] was 0.13, the “CI (combination index)” value [1, 6] was 0.53 and the “Fa (fraction affected)” value [1, 6] was 0.27. For the same compound, the “CI (combination index)” value [1, 7] was 0.79, the “Fa (fraction affected)” value [1, 7] was 0.32 and the “CI (combination index)” value [1, 8] was 1.23. For the same compound, the “Fa (fraction affected)” value [1, 8] was 0.38, the “CI (combination index)” value [1, 9] was 434.19 and the “Fa (fraction affected)” value [1, 9] was 0.05. The “CI (combination index)” value [1, 10] was 2.22, the “Fa (fraction affected)” value [1, 10] was 0.14 and the “CI (combination index)” value [1, 11] was 0.40. The “Fa (fraction affected)” value [1, 11] was 0.29, the “CI (combination index)” value [1, 12] was 1.18 and the “Fa (fraction affected)” value [1, 12] was 0.29. For the same compound, the “CI (combination index)” value [1, 13] was 0.98, the “Fa (fraction affected)” value [1, 13] was 0.40 and the “CI (combination index)” value [1, 14] was 0.58. For the same compound, the “Fa (fraction affected)” value [1, 14] was 0.19, the “CI (combination index)” value [1, 15] was 2.08 and the “Fa (fraction affected)” value [1, 15] was 0.16. The “CI (combination index)” value [1, 16] was 0.29, the “Fa (fraction affected)” value [1, 16] was 0.31 and the “CI (combination index)” value [1, 17] was 0.83. The “Fa (fraction affected)” value [1, 17] was 0.32, the “CI (combination index)” value [1, 18] was 0.85 and the “Fa (fraction affected)” value [1, 18] was 0.41. The “CI (combination index)” value [1, 19] was 5.16, the “Fa (fraction affected)” value [1, 19] was 0.16 and the “CI (combination index)” value ([1]; SG3199 3.6 pM + MMAE 0.2 ng/ml) was 69.07. The “Fa (fraction affected)” value ([1]; SG3199 3.6 pM + MMAE 0.2 ng/ml) was 0.11, the “CI (combination index)” value ([1]; SG3199 3.6 pM + MMAE 0.6 ng/ml) was 1.26 and the “Fa (fraction affected)” value ([1]; SG3199 3.6 pM + MMAE 0.6 ng/ml) was 0.23. For the same compound, the “CI (combination index)” value ([1]; SG3199 3.6 pM + MMAE 1.9 ng/ml) was 1.36, the “Fa (fraction affected)” value ([1]; SG3199 3.6 pM + MMAE 1.9 ng/ml) was 0.28 and the “CI (combination index)” value ([1]; SG3199 3.6 pM + MMAE 5.6 ng/ml) was 1.93. For the same compound, the “Fa (fraction affected)” value ([1]; SG3199 3.6 pM + MMAE 5.6 ng/ml) was 0.34, the “CI (combination index)” value [1, 20] was 12.16 and the “Fa (fraction affected)” value [1, 20] was 0.17. For the same compound, the “CI (combination index)” value [1, 21] was 18.45, the “Fa (fraction affected)” value [1, 21] was 0.16 and the “CI (combination index)” value [1, 22] was 0.60. For the same compound, the “Fa (fraction affected)” value [1, 22] was 0.29, the “CI (combination index)” value [1, 23] was 1.32 and the “Fa (fraction affected)” value [1, 23] was 0.29. The “CI (combination index)” value [1, 24] was 1.12, the “Fa (fraction affected)” value [1, 24] was 0.39 and the “CI (combination index)” value [1, 25] was 0.22. For the same compound, the “Fa (fraction affected)” value [1, 25] was 0.34, the “CI (combination index)” value [1, 26] was 0.39 and the “Fa (fraction affected)” value [1, 26] was 0.33. For the same compound, the “CI (combination index)” value [1, 27] was 0.23, the “Fa (fraction affected)” value [1, 27] was 0.37 and the “CI (combination index)” value [1, 28] was 0.30. For the same compound, the “Fa (fraction affected)” value [1, 28] was 0.42, the “CI (combination index)” value [1, 29] was 0.37 and the “Fa (fraction affected)” value [1, 29] was 0.49. For the same compound, the “CI (combination index)” value [1, 30] was 0.03, the “Fa (fraction affected)” value [1, 30] was 0.47 and the “CI (combination index)” value ([1]; SG3199 230 pM + MMAE 0.2 ng/ml) was 0.02. For the same compound, the “Fa (fraction affected)” value ([1]; SG3199 230 pM + MMAE 0.2 ng/ml) was 0.51, the “CI (combination index)” value ([1]; SG3199 230 pM + MMAE 0.6 ng/ml) was 0.03 and the “Fa (fraction affected)” value ([1]; SG3199 230 pM + MMAE 0.6 ng/ml) was 0.54. For the same compound, the “CI (combination index)” value ([1]; SG3199 230 pM + MMAE 1.9 ng/ml) was 0.04, the “Fa (fraction affected)” value ([1]; SG3199 230 pM + MMAE 1.9 ng/ml) was 0.59 and the “CI (combination index)” value ([1]; SG3199 230 pM + MMAE 5.6 ng/ml) was 0.09. The “Fa (fraction affected)” value ([1]; SG3199 230 pM + MMAE 5.6 ng/ml) was 0.62 and the “median Chou-Talalay combination index (CI)” value ([1]; TMD8, 24 hours, <0.9 indicates synergy) was 0.85.
In the case of “CD19xADC: anti-CD19 ADC; Loncastuximab tesirine is the CD19xADC used”, the “CR (complete response)” value [2, 31] is reported as 0, the “PR (partial response)” value [2, 31] is reported as 0 and the “TFS (tumour free survivor)” value [2, 31] is reported as 0. For the same compound, the “CR (complete response)” value [2, 32] was 7, the “PR (partial response)” value [2, 32] was 0 and the “TFS (tumour free survivor)” value [2, 32] was 7. The “CR (complete response)” value [3, 33] was 0, the “PR (partial response)” value [3, 33] was 3 and the “TFS (tumour free survivor)” value [3, 33] was 0. The “CR (complete response)” value [3, 34] was 5, the “PR (partial response)” value [3, 34] was 2 and the “TFS (tumour free survivor)” value [3, 34] was 3.
